{"source": "patent US20230134059A1", "about": "“[…] AND METHODS FOR CORRECTING, SLOWING, REDUCING, AND/OR CONTROLLING THE PROGRESSION OF MYOPIA IN CONJUNCTION WITH USE OF ATROPINE OR RELATED COMPOUNDS” (Brien Holden Vision Institute Limited, priority 2020, published 2023)", "key": {"eye of a -2.00 D myope": {"test_system": "eye of a -2.00 D myope", "assay": "Spherical aberration of combined spectacle lens and eye system after Atropine-induced pupil increase", "type": "in vivo", "details": "pupillary diameter increased from about 3 mm to about 6 mm with use of Atropine", "text": "FIG. 1A illustrates a schematic plot of pupil diameters resulting from use of Atropine, a widely used muscarinic receptor antagonist and a pharmaceutical agent for myopia therapy. […] Considering FIG. 1A, it is observed that use of 0.01% Atropine which to date is the lowest concentration used for treatment of myopia in individuals, increases the photopic pupillary diameter by approximately 1 mm. Increasing the concentration to anywhere from 0.025% to 0.1% Atropine, increases the photopic pupil size from about 2 mm to about 3 mm. With the highest concentration of 0.5% Atropine, the increase in photopic pupil size was largest and at about 3 mm. An increase in pupil size increases aberrations of the eye. […] FIG. 1B illustrates the increase in higher order aberrations from 3rd to 6th order as determined by aberrometry for the myopic eye of an individual who has a distance refractive error of approximately −2.00 D. It is observed that there is a significant increase in aberrations with a larger pupil. An increase in the pupil size may result in a functional decrement in visual performance and one or more unwanted effects such as poorer visual performance, reduced contrast, blurred vision, increased glare and increased photophobia (sensitivity to light). […]"}, "[1]": {"test_system": "myopic children aged 8-10 years", "details": "cited from earlier work"}, "myopia progression": {"test_system": "myopia progression", "details": "Atropine eye drops 0.01% to 1.0%; cited from earlier work"}, "[2]": {"test_system": "eye of individuals treated for myopia", "details": "cited from earlier work"}, "children aged 6-12 years": {"test_system": "children aged 6-12 years", "details": "concentrations greater than 0.1% Atropine; cited from earlier work"}}, "note": "Where two headings read alike, the source gives them in different places."}
{"smiles": "CN1[C@@H]2CC[C@H]1C[C@@H](OC(=O)C(CO)c1ccccc1)C2", "note": "(some centres unmarked) [Atropine]", "values": [{"measurement": "effective increase of spherical aberration of combined spectacle lens and eye system", "setting": "eye of a -2.00 D myope", "result": "about +0.50 D"}, {"measurement": "request photochromic progressive lenses, % of the time", "setting": "[1]; atropine 0.01%", "result": 6, "unit": "%"}, {"measurement": "request photochromic progressive lenses, % of the time", "setting": "[1]; atropine 0.1%", "result": 61, "unit": "%"}, {"measurement": "request photochromic progressive lenses, % of the time", "setting": "[1]; atropine 0.5%", "result": 70, "unit": "%"}, {"measurement": "efficacy in slowing myopia, concentration dependent response", "setting": "myopia progression", "result": "the higher the concentration, the greater the efficacy"}, {"measurement": "increase in photopic pupillary diameter", "setting": "[2]; 0.01% Atropine", "result": "approximately 1 mm"}, {"measurement": "increase in photopic pupil size", "setting": "[2]; 0.5% Atropine (highest concentration)", "result": "about 3 mm"}, {"measurement": "reduction in amplitude of accommodation", "setting": "children aged 6-12 years", "result": "more than half"}]}
